The source of these data is PMC8596838, “Xylose‐Configured Cyclophellitols as Selective Inhibitors for Glucocerebrosidase” (Chembiochem, 2021).

What is called IC50 is the concentration at which inhibition is half-maximal. Low readings indicate greater potency, high ones weaker potency.

One test concerns the target T1, GBA2 (Homo sapiens, UniProt Q9HCG7).
T1 construct: expressed in transfected cells; host or cells: HEK293T (GBA/GBA2 KO background for the fluorogenic assay; endogenous-GBA background with GBA2 and GBA3 overexpressed for ABPP and intact-cell assays)
T1 sequence (Q9HCG7 1-927): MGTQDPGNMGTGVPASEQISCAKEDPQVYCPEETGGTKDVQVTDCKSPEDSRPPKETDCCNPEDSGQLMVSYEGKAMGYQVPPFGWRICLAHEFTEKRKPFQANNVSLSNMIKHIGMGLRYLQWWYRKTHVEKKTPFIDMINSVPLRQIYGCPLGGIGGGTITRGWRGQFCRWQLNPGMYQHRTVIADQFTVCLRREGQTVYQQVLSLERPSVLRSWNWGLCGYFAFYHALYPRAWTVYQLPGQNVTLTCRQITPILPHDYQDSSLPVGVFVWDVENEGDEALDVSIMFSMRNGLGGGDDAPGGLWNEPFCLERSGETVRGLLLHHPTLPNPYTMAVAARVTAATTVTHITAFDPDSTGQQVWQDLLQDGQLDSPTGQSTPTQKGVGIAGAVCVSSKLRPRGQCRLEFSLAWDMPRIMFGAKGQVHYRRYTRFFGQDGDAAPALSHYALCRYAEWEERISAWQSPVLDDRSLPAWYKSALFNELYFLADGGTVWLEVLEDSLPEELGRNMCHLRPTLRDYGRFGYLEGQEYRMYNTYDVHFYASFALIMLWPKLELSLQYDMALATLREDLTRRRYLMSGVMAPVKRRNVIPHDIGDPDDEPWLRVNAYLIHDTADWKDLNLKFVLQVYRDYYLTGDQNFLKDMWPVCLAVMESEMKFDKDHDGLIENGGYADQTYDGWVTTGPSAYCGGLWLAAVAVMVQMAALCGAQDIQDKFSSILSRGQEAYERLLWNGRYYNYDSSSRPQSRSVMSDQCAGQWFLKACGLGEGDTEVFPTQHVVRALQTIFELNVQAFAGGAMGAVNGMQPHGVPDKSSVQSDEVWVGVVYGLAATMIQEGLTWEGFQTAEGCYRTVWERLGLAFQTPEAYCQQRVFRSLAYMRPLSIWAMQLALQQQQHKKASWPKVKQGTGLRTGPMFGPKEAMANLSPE
The test is described as follows: Inhibition in intact HEK293T cells (24 h), read out by cABPP with ABP 10, GBA2. Type of test: cell-based. The settings on record: for IC50: 24 h treatment, cABPP quantification, n=3; for GBA2/GBA ratio, intact cells: IC50 ratio, 24 h. From the text:
(§1) We next examined the activity of 1 and 2 towards the three human β‐D‐glucosidase in intact HEK293T cells. […] It is noted that the GBA‐selectivity of both compounds is much improved in intact cells than in the in vitro system (Figure 2 and Table 1). This is especially true for compound 1, where an impressive 4‐logs of selectivity window is observed.
(§2) Figure 5 Inhibitory effect of β‐D‐xylo‐configured cyclophellitol 1 and cyclophellitol aziridine 2 on β‐glucosidases in intact HEK293T cells expressing GBA, GBA2 and GBA3. (A) Representative gel images of cABPP where cells were treated for 24 h with indicated inhibitor. Lysates were then prepared and labeled with fluorescent ABP 10. Fluorescently labeled proteins were visualized after SDS‐PAGE (1 set from n=3 replicates). (B) IC50 curves determined by cABPP labeling results. (C) Apparent IC50 values towards β‐glucosidases in intact HEK293T cells producing GBA, GBA2 and GBA3 were determined by the fluorescence quantification based on cABPP SDS‐PAGE results.
(§3) ABP labeling procedure: Glycosidases were labeled with excess fluorescent ABPs at optimum conditions. ABP labeling was performed at 37 °C for 30 min for all materials (if not otherwise stated), in a total sample volume of 20–40 μL and 0.5–1 % DMSO concentration. GBA was labeled with 200 nM ABP 9 (pH 5.2, 0.1 % (v/v) Triton‐100, 0.2 % (w/v) sodium taurocholate), or labeled together with GBA2 using 200 nM β‐D‐glucose‐configured aziridine ABP 10 at pH 5.8, or labeling together with GBA2 and GBA3 using 200 nM β‐D‐glucose‐configured aziridine ABP 10 at pH 6.0. After ABP incubation, proteins were denatured by boiling the samples with 5× Laemmli buffer (50 % (v/v) 1 M Tris‐HCl, pH 6.8, 50 % (v/v) 100 % glycerol, 10 % (w/v) DTT, 10 % (w/v) SDS, 0.01 % (w/v) bromophenol blue) for 5 min at 98 °C, and separated by electrophoresis on 10 % (w/v) SDS‐PAGE gels running continuously at 90 V. Wet slab‐gels were scanned on fluorescence using the Typhoon FLA 9500 (GE Healthcare) at λEX 473 nm and λEM≥510 nm for green fluorescent ABP 8; and at λEX 635 nm and λEM≥665 nm for ABP 6, 9 and 10. ABP‐emitted fluorescence was quantified using ImageQuant software (GE Healthcare, Chicago, IL, USA) and curve‐fitted using Prism 8.0 (GraphPad Software). After fluorescence scanning, SDS‐PAGE gels were stained for total protein with Coomassie G250 and scanned on a ChemiDoc MP imager (Bio‐Rad, Hercules, CA, USA).[25]
(§4) Assessment of inhibitor activity in cultured cells: Confluent HEK293T stably expressing human GBA and GBA2 GBA3 overexpressing were cultured in 24‐well plates in triplicates with(out) inhibitors for 24 h at 37 °C with 7 % CO2. […]

The target in a further test is T2, GBA3 (Homo sapiens, UniProt Q9H227).
T2 construct: expressed in transfected cells; host or cells: HEK293T (GBA/GBA2 KO background for the fluorogenic assay; endogenous-GBA background with GBA2 and GBA3 overexpressed for ABPP and intact-cell assays)
T2 sequence (Q9H227 1-469): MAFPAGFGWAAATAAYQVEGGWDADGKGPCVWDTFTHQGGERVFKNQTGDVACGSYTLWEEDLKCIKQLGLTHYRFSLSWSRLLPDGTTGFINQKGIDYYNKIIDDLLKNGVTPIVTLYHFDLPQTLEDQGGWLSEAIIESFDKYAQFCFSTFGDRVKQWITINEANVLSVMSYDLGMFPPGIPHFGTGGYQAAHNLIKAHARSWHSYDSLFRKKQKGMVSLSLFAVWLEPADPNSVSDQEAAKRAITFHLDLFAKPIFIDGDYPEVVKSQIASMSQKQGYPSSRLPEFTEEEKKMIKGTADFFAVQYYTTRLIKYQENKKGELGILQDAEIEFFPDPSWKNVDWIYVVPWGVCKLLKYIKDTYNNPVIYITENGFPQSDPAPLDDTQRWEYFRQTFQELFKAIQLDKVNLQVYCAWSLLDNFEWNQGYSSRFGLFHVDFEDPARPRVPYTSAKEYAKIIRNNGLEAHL
The test is described as follows: Inhibition in intact HEK293T cells (24 h), read out by cABPP with ABP 10, GBA3. The settings on record: for IC50: 24 h treatment, cABPP quantification, n=3; for GBA3/GBA ratio, intact cells: IC50 ratio, 24 h. Type of test: cell-based.
Description: as §1, §2, §3, §4

Regarding `O[C@@H]1[C@@H](O)[C@H](O)C[C@H]2N[C@@H]12` [compound 2, β‐D‐xylo‐Cyclophellitol aziridine], on GBA2, it took 10.4 ± 1.53 µM to reach half-maximal inhibition (IC50) and the “GBA2/GBA ratio, intact cells” value was 247. On GBA3, the IC50 is 48.9 ± 12.7 µM and the “GBA3/GBA ratio, intact cells” value is recorded as 1159.
Consider `O[C@@H]1[C@@H](O)[C@H](O)C[C@H]2O[C@@H]12` [compound 1, xylo‐cyclophellitol], for which, at GBA2, the IC50 was more than 100 µM and the “GBA2/GBA ratio, intact cells” value is reported as more than 10000. Also, on GBA3, the half-maximal inhibitory concentration (IC50) is more than 100 µM and the “GBA3/GBA ratio, intact cells” value was more than 10000.
